Laboratory results published in ChEMBL document CHEMBL5137002, “A Comprehensive Biological and Synthetic Perspective on 2-Deoxy-d-Glucose (2-DG), A Sweet Molecule with Therapeutic and Diagnostic Potentials” (J Med Chem, 2022).

Tests used:
[1] = Competitive inhibition of yeast hexokinase; design: species or system Saccharomyces cerevisiae
[2] = Competitive inhibition of rat brain hexokinase
Saccharomyces cerevisiae = assay: Inhibition of yeast hexokinase assessed as Km
SARS-CoV-2 [3] = assay: Antiviral activity against SARS-CoV-2 B.6 in African green monkey Vero E6 cells assessed as inhibition of virus multiplication; assay type: functional, organism-based; conditions: Severe acute respiratory syndrome coronavirus 2, B.6, Vero C1008
SARS-CoV-2 [4] = assay: Antiviral activity against SARS-CoV-2 B.1.1.7 in African green monkey Vero E6 cells assessed as inhibition of virus multiplication; assay type: functional, organism-based; conditions: Severe acute respiratory syndrome coronavirus 2, B.1.1.7, Vero C1008
SARS-CoV-2 [5] = assay: Antiviral activity against SARS-CoV-2 in African green monkey Vero E6 cells assessed as inhibition of virus multiplication at 1 mM; assay type: functional; conditions: Severe acute respiratory syndrome coronavirus 2, Vero C1008
SARS-CoV-2 [6] = assay: Antiviral activity against SARS-CoV-2 in African green monkey Vero cells assessed as inhibition of virus multiplication in presence of extracellular glucose; assay type: functional, Severe acute respiratory syndrome coronavirus 2
[7] = Drug uptake in tumor of rat measured per gram of tissue at 1 hr; assay type: ADME, tissue-based, Neoplasm; conditions: in vivo
[8] = Ratio of tumor to blood biodistribution in rat after 60 mins; assay type: ADME, organism-based; conditions: tumor and blood
U-87 MG [9] = assay: Growth inhibition of human U87 cells under hypoxic condition; assay type: functional, cell-based, U-87MG ATCC
U-87 MG [10] = assay: Growth inhibition of human U87 cells under normoxic condition; assay type: functional, cell-based, U-87MG ATCC

SMILES: NC1C(O)OC(CO)[C@@H](O)[C@@H]1O (stereo not given in full)
- Ki [1]: 700 µM
- Ki [2]: 300 µM

SMILES: OC[C@H]1OC(O)C(F)(F)[C@@H](O)[C@@H]1O (stereo not given in full)
- Km (Saccharomyces cerevisiae): 130 µM

SMILES: OC[C@H]1OC(O)[C@H](F)[C@@H](O)[C@@H]1O (stereo not given in full)
- Km (Saccharomyces cerevisiae): 190 µM

SMILES: OC[C@H]1OC(O)C[C@@H](O)[C@@H]1O (stereo not given in full)
- IC50 (SARS-CoV-2 [3]): < 1000 µM
- IC50 (SARS-CoV-2 [4]): < 1000 µM
- inhibition at 1000 µM (SARS-CoV-2 [5]): 93%
- inhibition (INH) (SARS-CoV-2 [6]): 7%

SMILES: OC[C@H]1OC(O)[C@@H](F)[C@@H](O)[C@@H]1O (stereo not given in full)
- Km (Saccharomyces cerevisiae): 410 µM

SMILES: OC1C[C@H](O)[C@H](O)CO1 (stereo not given in full)
- Km (Saccharomyces cerevisiae): 590 µM

SMILES: OC[C@H]1OC(O)[C@H](O)[C@@H](F)[C@@H]1O (stereo not given in full)
- Km (Saccharomyces cerevisiae): 70000 µM

SMILES: OC[C@H]1OC(O)[C@H]([18F])[C@@H](O)[C@@H]1O (stereo not given in full) [FLUDEOXYGLUCOSE F 18]
- Drug uptake [7]: 2.65%
- Kp at 1 h [8]: 22.1

SMILES: OC[C@H]1OC(O)[C@H](O)[C@@H](O)[C@@H]1F (stereo not given in full)
- Km (Saccharomyces cerevisiae): 84000 µM

SMILES: OC[C@H]1OC(O)[C@@H]([18F])[C@@H](O)[C@@H]1O (stereo not given in full)
- Drug uptake [7]: 2.65%
- Kp at 1 h [8]: 29.4

SMILES: CC(=O)Nc1c(I)c(C(=O)N[C@H]2C(O)O[C@H](CO)[C@@H](O)[C@@H]2O)c(I)c(N(C)C(C)=O)c1I (stereo not given in full) [METRIZAMIDE]
- Ki [1]: 700 µM
- Ki [2]: 20000 µM

SMILES: CC(=O)OC[C@H]1OC(O)C[C@@H](OC(C)=O)[C@@H]1O (stereo not given in full)
- IC50 (U-87 MG [9]): 1000 µM
- IC50 (U-87 MG [10]): 1000 µM
